Counter-ions that a name gives are not always drawn.
What was measured:
[1] = test system: U2OS ER-Minus cells; assay: IL-6 production in ER-Minus (parental) U2OS osteosarcoma cells; type: cell-based, human; details: 24 h
[2] = target: T1, human full-length ER-β (Homo sapiens, UniProt Q92731); assay: IL-6 production in U2OS osteosarcoma cells stably transfected with ER-β; type: cell-based
T1 construct: expression vectors for human full-length ER-α or ER-β; expressed in transfected cells

[3] = target: T2, human full-length ER-α (Homo sapiens, UniProt P03372); assay: IL-6 production in U2OS osteosarcoma cells stably transfected with ER-α; type: cell-based
T2 construct: expression vectors for human full-length ER-α or ER-β; expressed in transfected cells
T2 sequence (P03372 1-595): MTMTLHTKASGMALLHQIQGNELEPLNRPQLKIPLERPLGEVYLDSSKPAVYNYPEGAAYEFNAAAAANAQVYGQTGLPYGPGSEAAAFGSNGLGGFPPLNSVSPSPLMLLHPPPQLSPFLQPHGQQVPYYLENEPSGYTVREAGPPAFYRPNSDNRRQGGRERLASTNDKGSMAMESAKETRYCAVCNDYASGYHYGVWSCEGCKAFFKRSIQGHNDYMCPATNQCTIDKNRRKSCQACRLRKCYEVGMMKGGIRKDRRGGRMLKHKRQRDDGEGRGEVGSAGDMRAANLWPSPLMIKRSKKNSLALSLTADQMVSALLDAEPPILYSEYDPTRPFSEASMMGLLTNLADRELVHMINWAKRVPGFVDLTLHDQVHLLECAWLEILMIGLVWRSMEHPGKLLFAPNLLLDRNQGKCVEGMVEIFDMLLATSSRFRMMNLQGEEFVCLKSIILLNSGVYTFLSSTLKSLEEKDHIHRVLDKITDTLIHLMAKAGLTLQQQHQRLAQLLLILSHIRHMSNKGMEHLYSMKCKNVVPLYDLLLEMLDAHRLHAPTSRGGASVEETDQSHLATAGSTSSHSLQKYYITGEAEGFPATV

[4] = IL-6 after 10 ng/ml IL-1β and 10 ng/ml TNF-α, 50% inhibition relative to DMSO control

T1 sequence (Q92731 whole entry): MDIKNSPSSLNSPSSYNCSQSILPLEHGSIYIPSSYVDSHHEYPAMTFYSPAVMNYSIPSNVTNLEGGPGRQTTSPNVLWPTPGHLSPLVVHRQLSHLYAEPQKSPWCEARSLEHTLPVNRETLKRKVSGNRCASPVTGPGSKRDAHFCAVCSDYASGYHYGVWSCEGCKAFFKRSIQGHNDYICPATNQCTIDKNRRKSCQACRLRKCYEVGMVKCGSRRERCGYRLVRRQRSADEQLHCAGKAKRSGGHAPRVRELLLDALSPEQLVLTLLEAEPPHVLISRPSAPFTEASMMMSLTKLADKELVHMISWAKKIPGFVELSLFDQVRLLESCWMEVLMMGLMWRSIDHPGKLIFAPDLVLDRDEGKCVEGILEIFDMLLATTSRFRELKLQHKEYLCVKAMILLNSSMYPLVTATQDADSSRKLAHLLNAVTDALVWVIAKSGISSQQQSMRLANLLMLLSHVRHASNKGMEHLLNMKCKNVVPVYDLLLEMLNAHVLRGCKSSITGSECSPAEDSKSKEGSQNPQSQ

Compound	IC50 ([1]; Homo sapiens, U2OS)	IC50 [2]	IC50 [3]	IC50 [1, 4]	melting point
Oc1ccc2c(c1)CCN(c1ccccc1)C2Cc1ccc(Br)cc1 (stereo not shown) [Example 2, 1-(4-Bromobenzyl)-2-phenyl-1,2,3,4-tetrahydroisoquinolin-6-ol]	> 1000 nM	107 nM	> 1000 nM	–	–
4-Hydroxy-Tamoxifen	–	–	–	> 1000 nM	–
Oc1ccc2c(c1)CCCN(c1ccc(F)cc1)C2Cc1ccc(OCCN2CCCCC2)cc1 (stereo not shown) [Example 8]	> 10000 nM	5000 nM	10000 nM	–	–
CCN(CCOc1ccc(CC2c3ccc(O)cc3CCN2c2ccc(F)cc2)cc1)Cc1ccccc1 (stereo not shown) [Example 21, 1-{4-[(2-(N-Benzyl-N-ethyl)amino)ethoxy]benzyl}-2-(4-fluorophenyl)-1,2,3,4-tetrahydroisoquinolin-6-ol]	–	–	–	–	47 to 49 °C
Oc1ccc2c(c1)CCN(c1ccc(F)cc1)C2Cc1ccc(OCCN2CCCCC2)cc1 (stereo not shown) [Example 5]	> 10000 nM	285 nM	2010 nM	–	–
Oc1ccc2c(c1)CCN(c1ccc(F)cc1)C2c1ccc(OCCN2CCCCC2)cc1 (stereo not shown) [Compound A, reference compound]	> 10000 nM	> 10000 nM	1 nM	–	–
C[C@]12CC[C@@H]3c4ccc(O)cc4CC[C@H]3[C@@H]1CC[C@@H]2O [17-β-Estradiol]	–	–	–	> 1000 nM	–
O=C(c1ccc(OCCN2CCCCC2)cc1)c1c(-c2ccc(O)cc2)sc2cc(O)ccc12 [Raloxifene Hydrochloride]	> 1000 nM	–	–	–	–

Source: US6593322B1, “Compounds and methods for modulation of estrogen receptors” (Signal Pharmaceuticals, Inc., priority 1999, dated 2003)
